# How the values were obtained:
# Assay type in all cases: cell-based
# [1] = target: T1, M4 muscarinic receptor (Homo sapiens, UniProt P08173); test: Functional mobilization of intracellular calcium (FLIPR), M4-CHO cells; settings: for Emax: 100% efficacy = maximum response obtained with the Carbachol control; for M4 Activity: M4-CHO cells, calcium mobilization (FLIPR)
# T1 construct: expressed in transfected cells; host or cells: CHO (M4-CHO)
# T1 sequence (P08173 1-479): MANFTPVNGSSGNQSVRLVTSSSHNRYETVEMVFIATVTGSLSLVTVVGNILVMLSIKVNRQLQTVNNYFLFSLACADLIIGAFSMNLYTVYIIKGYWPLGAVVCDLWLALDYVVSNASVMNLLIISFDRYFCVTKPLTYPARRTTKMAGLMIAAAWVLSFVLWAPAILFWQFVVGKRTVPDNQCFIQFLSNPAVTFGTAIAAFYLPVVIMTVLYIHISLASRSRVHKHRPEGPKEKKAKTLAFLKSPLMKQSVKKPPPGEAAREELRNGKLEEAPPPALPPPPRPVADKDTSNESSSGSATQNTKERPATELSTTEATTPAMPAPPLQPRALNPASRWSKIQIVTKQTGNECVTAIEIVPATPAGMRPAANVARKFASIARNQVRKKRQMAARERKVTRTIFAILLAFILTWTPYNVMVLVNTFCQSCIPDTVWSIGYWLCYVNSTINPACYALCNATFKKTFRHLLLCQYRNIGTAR
# Protocol: (§1) Functional Mobilization of Intracellular Calcium to Determine Muscarinic Receptor Activity:
# (§2) CHO cells expressing muscarinic receptors (M1 to M5) are grown as monolayers in tissue culture flasks at 37° C. in a humidified atmosphere containing 5% CO2 and passaged every 3-5 days. The growth media is Dulbecco's modified eagles medium (DMEM, Gibco Cat #12430-054), containing 25 mM Hepes and supplemented with Fetal Bovine Serum (Hyclone, cat #SH30071.03), 0.1 mM of MEM non-essential amino acids (GIBCO, Cat #11140-050), 1 mM MEM Sodium Pyruvate (GIBCO Cat #11360-070) and 100 units/ml of Penicillin G and 100 μg/ml of Streptomycin (GIBCO Cat #15140-122). The recombinant muscarinic receptor cell lines are grown under antibiotic pressure with media containing 25 μg/ml zeocin and 500 μg/ml G418 (M1-CHO), 4 μg/ml puromycin, 50 μg/ml zeocin and 2.5 μg/ml blasticidin (M2 and M4-CHO) or 50 μg/ml zeocin and 4 μg/ml puromycin (M3 and M5-CHO).
# (§3) Cells are harvested at 80-90% confluence using Versene (GIBCO Cat #15040-066), collected by centrifugation and seeded 18-24 hrs prior to running the calcium assay at a density of 5,000-10,000 cells/well in […], clear-bottomed 384-well plates (BD Biocoat, poly-D-lysine, Cat #356663). The day of the experiment, the cells are washed with a plate washer (Bioteck Instruments, ELX 405) using bath 1 buffer (140-mM NaCl, 4.5-mM KCl, 2-mM CaCl2, 1-mM MgCl2, 10-mM Hepes-Na, 10-mM Glucose, pH 7.4, with NaOH) containing 1 mM Probenecid. Next, the calcium dye Fluo-3 (25 μl/well of Fluo-3 AM at 4 μM, Molecular Probes F-1241, in Bath 1 buffer containing 1 mM Probenecid) is added to the 25 μl of Bath 1 remaining in each well after the plate wash and the dye is loaded at 37° C. in the tissue culture incubator for 60-90 min. The fluorescent dye is removed using the plate washer with Bath 1 containing 1 mM Probenecid, leaving 25 μl/well of this solution after the wash. Alternatively, cells can be loaded with the calcium indicator from Molecular Devices (Calcium 3 Assay Reagents, Cat #R7181) adding 5 μl of a 5× solution dye in Bath 1 containing 1 mM Probenecid (10 ml per dye flask cat #R7182 to generate a solution 20×) to 20 μl of the same buffer. After loading for 60 min, the experiment can be run without having to remove the dye.
# (§4) Compounds are prepared at a 2× fold concentration in a 96-well plate (round bottom, Costar Corning cat #3656), by reconstituting the pre-spotted compounds in bath 1 containing 1 mM probenecid. The final concentration DMSO is 0.5%, and the amount of DMSO is normalized across the assay plate. To determine an agonist action of the compounds on muscarinic receptors, the reconstituted compounds are added (25 μl compound/well) to the cell assay plate (containing 25 μl/well) using the multi-channel robotic system of the FLIPR 3 Instrument (Molecular Devices, Sunnyvale, Calif.). To determine a functional inhibitory action of the compounds on muscarinic receptors, the reconstituted compounds are added (25 μl compound/well) to the assay plate and pre-incubated for 15 min prior to adding 25 μl of Carbachol at 3× the EC80 for each muscarinic subtype. Alternatively, the compounds can be co-applied simultaneously with the agonist. In both assay modes, the fluorescence is recorded for 60 sec (excitation wavelength is […] and emission wavelength 540 nm) using the FLIPR 3 instrument.
# (§5) The potency, efficacy and selectivity of the muscarinic compounds were evaluated by screening the compound activity across the whole family (M1 to M5 cells). Compounds were also screened for activity on other proteins such as other GPCRs and ion channels to determine selectivity on M4 receptors.
# (§6) Examples of activities and efficacies of the muscarinic compounds of formulae (I, Ia, Ib, and II) on modulating M1, M2, M3 and M4 receptors are shown below in Table 3. […]
# [2] = target: T2, M1 muscarinic receptor (Homo sapiens, UniProt P11229); test: Functional mobilization of intracellular calcium (FLIPR), M1-CHO cells; settings: for Emax: 100% efficacy = maximum response obtained with the Carbachol control; for M1 Activity: M1-CHO cells, calcium mobilization (FLIPR)
# T2 construct: expressed in transfected cells; host or cells: CHO (M1-CHO)
# T2 sequence (P11229 1-460): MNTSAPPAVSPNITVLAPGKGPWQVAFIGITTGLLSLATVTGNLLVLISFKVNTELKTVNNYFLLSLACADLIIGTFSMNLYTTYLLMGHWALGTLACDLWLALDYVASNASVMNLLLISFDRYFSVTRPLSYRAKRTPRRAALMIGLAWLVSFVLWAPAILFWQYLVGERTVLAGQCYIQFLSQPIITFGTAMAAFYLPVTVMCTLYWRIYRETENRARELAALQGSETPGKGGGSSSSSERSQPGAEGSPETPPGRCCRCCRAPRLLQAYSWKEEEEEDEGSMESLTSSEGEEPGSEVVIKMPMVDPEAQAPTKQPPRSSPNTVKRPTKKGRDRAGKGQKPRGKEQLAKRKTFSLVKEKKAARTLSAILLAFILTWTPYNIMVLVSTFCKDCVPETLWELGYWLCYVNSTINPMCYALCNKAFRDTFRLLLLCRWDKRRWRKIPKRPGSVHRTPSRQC
# Protocol: as §1, §2, §3, §4, §5, §6
# [3] = target: T3, M2 muscarinic receptor (Homo sapiens, UniProt P08172); test: Functional mobilization of intracellular calcium (FLIPR), M2-CHO cells; settings: for Emax: 100% efficacy = maximum response obtained with the Carbachol control; for M2 Activity: M2-CHO cells, calcium mobilization (FLIPR)
# T3 construct: expressed in transfected cells; host or cells: CHO (M2-CHO)
# T3 sequence (P08172 1-466): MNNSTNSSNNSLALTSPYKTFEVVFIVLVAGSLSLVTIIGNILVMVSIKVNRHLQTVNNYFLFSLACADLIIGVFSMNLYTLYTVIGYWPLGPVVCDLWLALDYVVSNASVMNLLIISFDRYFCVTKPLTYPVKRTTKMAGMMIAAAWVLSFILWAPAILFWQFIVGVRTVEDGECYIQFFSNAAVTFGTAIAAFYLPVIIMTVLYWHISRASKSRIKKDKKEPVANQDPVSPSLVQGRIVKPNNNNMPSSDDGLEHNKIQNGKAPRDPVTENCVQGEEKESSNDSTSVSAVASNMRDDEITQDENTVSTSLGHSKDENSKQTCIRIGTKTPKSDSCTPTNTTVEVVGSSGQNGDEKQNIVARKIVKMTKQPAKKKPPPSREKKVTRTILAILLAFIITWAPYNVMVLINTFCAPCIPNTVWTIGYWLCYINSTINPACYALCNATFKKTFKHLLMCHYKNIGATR
# Protocol: as §1, §2, §3, §4, §5, §6
SMILES,Emax [1] [%],M4 Activity [1],Emax [2] [%],M1 Activity [2],Emax [3] [%],M2 Activity [3]
COc1ccc(Cl)cc1C1(O)CCN(C2CCC3CCC2C3)CC1 (stereo not drawn) [Compound 228],25 to 100,++ (activity was measured to be from 1.0 μM to 5.0 μM),< 25,+ (activity was measured to be greater than 5.0 μM),< 25,+ (activity was measured to be greater than 5.0 μM)
COc1ccccc1C1(C#N)CCN(C2CCC3CCC2C3)CC1 (stereo not drawn) [Compound 240],25 to 100,+++ (activity was measured to be less than 1.0 μM),25 to 100,++ (activity was measured to be from 1.0 μM to 5.0 μM),25 to 100,++ (activity was measured to be from 1.0 μM to 5.0 μM)
COc1ccc(C2CCN(C3C[C@H]4CC[C@H](C3)C4)CC2)c(C)c1 (stereo partly drawn) [Compound 244],< 25,+ (activity was measured to be greater than 5.0 μM),< 25,+ (activity was measured to be greater than 5.0 μM),< 25,+ (activity was measured to be greater than 5.0 μM)
"CCOC(=O)N1CCC(N2CCC(C#N)(c3ccccc3OC)CC2)CC1 [Compound 245, ethyl 4-cyano-4-(2-methoxyphenyl)-1,4′-bipiperidine-1′-carboxylate]",25 to 100,+++ (activity was measured to be less than 1.0 μM),25 to 100,+++ (activity was measured to be less than 1.0 μM),< 25,+ (activity was measured to be greater than 5.0 μM)
COc1ccccc1C1(C#N)CCN(C2CCCCCC2)CC1 [Compound 279],25 to 100,++ (activity was measured to be from 1.0 μM to 5.0 μM),< 25,++ (activity was measured to be from 1.0 μM to 5.0 μM),< 25,+ (activity was measured to be greater than 5.0 μM)
COc1ccc(Cl)cc1C1(OC)CCN(C[C@@H]2C[C@H]3C=C[C@H]2C3)CC1 [Compound 286],25 to 100,+++ (activity was measured to be less than 1.0 μM),25 to 100,+ (activity was measured to be greater than 5.0 μM),< 25,+ (activity was measured to be greater than 5.0 μM)
COc1ccc(Cl)cc1C1(OC)CCN(C2CC3CCC(C3)C2)CC1 (stereo not drawn) [Compound 288],25 to 100,+++ (activity was measured to be less than 1.0 μM),25 to 100,++ (activity was measured to be from 1.0 μM to 5.0 μM),< 25,+ (activity was measured to be greater than 5.0 μM)
CCCC1CCC(N2CCC(c3cc(Cl)ccc3OC)CC2)CC1 (stereo not drawn) [Compound 293],25 to 100,++ (activity was measured to be from 1.0 μM to 5.0 μM),25 to 100,++ (activity was measured to be from 1.0 μM to 5.0 μM),25 to 100,++ (activity was measured to be from 1.0 μM to 5.0 μM)
COc1ccc(Cl)cc1C1(O)CCN(C2CCOCC2)CC1 [Compound 304],25 to 100,+ (activity was measured to be greater than 5.0 μM),< 25,+ (activity was measured to be greater than 5.0 μM),< 25,+ (activity was measured to be greater than 5.0 μM)
COc1ccc(Cl)cc1C1(OC)CCN(C2CC3CCC2C3)CC1 (stereo not drawn) [Compound 308],25 to 100,++ (activity was measured to be from 1.0 μM to 5.0 μM),< 25,+ (activity was measured to be greater than 5.0 μM),< 25,+ (activity was measured to be greater than 5.0 μM)
COc1ccccc1C1CCN(C2CC3CCC2O3)CC1 (stereo not drawn) [Compound 312],< 25,+ (activity was measured to be greater than 5.0 μM),< 25,+ (activity was measured to be greater than 5.0 μM),< 25,+ (activity was measured to be greater than 5.0 μM)
Cc1ccc(Cl)cc1C1CCN(CC2C[C@H]3CC[C@H]2C3)CC1 (stereo partly drawn) [Compound 315],25 to 100,+++ (activity was measured to be less than 1.0 μM),25 to 100,+ (activity was measured to be greater than 5.0 μM),25 to 100,+ (activity was measured to be greater than 5.0 μM)
CCCC1CCC(N2CCC(OC)(c3cc(Cl)ccc3OC)CC2)CC1 (stereo not drawn) [Compound 316],25 to 100,++ (activity was measured to be from 1.0 μM to 5.0 μM),25 to 100,++ (activity was measured to be from 1.0 μM to 5.0 μM),< 25,+ (activity was measured to be greater than 5.0 μM)

# Reference: patent publication US7880007B2, “Bicyclic substituted phenyl piperidine modulators of muscarinic receptors” (Vertex Pharmaceuticals Incorporated, priority 2004, dated 2011)
